Results taken from patent publication US6462038B1, “Androgen receptor modulator compounds and methods” (Ligand Pharmaceuticals, Inc., priority 1999, dated 2002).

Columns and labels:
Type in all cases: cell-based
PR = target: T1, PR (Homo sapiens, UniProt P06401); experiment: co-transfection assay, PR agonist
T1 construct: expressed in transfected cells; host or cells: CV-1 cells
T1 sequence (P06401 1-933): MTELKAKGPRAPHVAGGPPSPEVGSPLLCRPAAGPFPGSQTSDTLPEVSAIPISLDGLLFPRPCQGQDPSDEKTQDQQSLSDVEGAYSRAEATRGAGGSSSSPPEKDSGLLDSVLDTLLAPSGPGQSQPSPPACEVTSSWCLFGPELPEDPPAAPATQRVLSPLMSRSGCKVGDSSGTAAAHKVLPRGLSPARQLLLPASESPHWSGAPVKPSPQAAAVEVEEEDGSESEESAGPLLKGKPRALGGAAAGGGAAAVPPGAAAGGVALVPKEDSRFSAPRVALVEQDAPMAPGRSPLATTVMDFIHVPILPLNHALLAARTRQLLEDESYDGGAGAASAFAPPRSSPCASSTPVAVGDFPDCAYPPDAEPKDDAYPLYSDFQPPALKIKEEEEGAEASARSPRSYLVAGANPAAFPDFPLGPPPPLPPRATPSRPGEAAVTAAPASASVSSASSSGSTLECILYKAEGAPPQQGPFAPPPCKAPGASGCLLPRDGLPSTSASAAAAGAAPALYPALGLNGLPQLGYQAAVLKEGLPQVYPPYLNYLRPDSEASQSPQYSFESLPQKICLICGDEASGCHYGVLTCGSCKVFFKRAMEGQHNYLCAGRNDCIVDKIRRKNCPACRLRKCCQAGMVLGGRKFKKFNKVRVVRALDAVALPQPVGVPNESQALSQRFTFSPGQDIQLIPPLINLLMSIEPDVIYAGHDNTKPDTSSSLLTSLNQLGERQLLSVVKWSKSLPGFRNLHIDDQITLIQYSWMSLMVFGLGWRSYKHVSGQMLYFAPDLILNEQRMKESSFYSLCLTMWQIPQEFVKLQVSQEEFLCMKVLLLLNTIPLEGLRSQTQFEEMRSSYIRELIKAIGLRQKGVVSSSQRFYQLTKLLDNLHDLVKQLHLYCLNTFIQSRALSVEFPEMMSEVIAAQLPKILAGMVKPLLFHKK
Protocol: (§1) CV-1 cells (African green monkey kidney fibroblasts) were cultured in the presence of Dulbecco's Modified Eagle Medium (DMEM) supplemented with 10% charcoal resin-stripped fetal bovine serum (CH-FBS) then transferred to 96-well microtiter plates one day prior to transfection.
(§2) Three to four replicates were used for each sample.
(§3) After 40 hours, the cells were washed with PBS, lysed with a Triton X-100-based buffer and assayed for LUC and β-Gal activities using a luminometer or spectrophotometer, respectively. For each replicate, the normalized response (NR) was calculated as: […]

ER [1] = target: T2, ER (Homo sapiens, UniProt P03372); experiment: co-transfection assay, ER agonist
T2 construct: expressed in transfected cells; host or cells: CV-1 cells
Protocol: as §1, §2, §3

GR = target: T3, GR (Homo sapiens, UniProt P04150); experiment: co-transfection assay, GR antagonist
T3 construct: expressed in transfected cells; host or cells: CV-1 cells
T3 sequence (P04150 1-777): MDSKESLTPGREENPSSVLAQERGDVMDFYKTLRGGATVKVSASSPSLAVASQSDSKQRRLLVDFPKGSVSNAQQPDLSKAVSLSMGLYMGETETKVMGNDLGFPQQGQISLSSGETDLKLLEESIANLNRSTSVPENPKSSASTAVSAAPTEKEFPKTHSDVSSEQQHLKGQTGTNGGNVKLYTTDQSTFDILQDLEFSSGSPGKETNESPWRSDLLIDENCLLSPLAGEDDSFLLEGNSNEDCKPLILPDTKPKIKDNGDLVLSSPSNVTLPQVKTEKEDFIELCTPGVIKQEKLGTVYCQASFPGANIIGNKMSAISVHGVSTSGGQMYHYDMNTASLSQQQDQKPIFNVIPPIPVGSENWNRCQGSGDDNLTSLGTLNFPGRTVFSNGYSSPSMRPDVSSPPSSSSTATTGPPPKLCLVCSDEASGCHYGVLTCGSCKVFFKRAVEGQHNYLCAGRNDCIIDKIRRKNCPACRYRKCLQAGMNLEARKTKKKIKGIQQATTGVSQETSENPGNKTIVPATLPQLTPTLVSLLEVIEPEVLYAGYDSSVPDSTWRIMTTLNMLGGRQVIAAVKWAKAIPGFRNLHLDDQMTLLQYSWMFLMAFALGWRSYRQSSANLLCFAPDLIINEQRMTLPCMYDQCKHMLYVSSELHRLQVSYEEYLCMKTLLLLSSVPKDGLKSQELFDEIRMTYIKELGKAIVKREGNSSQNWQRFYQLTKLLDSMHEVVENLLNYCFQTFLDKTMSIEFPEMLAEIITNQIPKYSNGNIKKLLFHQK
Protocol: as §1, §2, §3

ER [2] = target: T2, ER; experiment: co-transfection assay, ER antagonist
Protocol: as §1, §2, §3

hAR = target: T4, hAR (Homo sapiens, UniProt P10275); experiment: co-transfection assay, AR antagonist (in presence of DHT), CV-1 cells; conditions: for AR Antagonist CV-1 Cells Efficacy (%): hAR in CV-1 cells, maximal inhibition, DHT at EC50
T4 construct: expressed in transfected cells; host or cells: CV-1 cells (African green monkey kidney fibroblasts)
T4 sequence (P10275 1-920): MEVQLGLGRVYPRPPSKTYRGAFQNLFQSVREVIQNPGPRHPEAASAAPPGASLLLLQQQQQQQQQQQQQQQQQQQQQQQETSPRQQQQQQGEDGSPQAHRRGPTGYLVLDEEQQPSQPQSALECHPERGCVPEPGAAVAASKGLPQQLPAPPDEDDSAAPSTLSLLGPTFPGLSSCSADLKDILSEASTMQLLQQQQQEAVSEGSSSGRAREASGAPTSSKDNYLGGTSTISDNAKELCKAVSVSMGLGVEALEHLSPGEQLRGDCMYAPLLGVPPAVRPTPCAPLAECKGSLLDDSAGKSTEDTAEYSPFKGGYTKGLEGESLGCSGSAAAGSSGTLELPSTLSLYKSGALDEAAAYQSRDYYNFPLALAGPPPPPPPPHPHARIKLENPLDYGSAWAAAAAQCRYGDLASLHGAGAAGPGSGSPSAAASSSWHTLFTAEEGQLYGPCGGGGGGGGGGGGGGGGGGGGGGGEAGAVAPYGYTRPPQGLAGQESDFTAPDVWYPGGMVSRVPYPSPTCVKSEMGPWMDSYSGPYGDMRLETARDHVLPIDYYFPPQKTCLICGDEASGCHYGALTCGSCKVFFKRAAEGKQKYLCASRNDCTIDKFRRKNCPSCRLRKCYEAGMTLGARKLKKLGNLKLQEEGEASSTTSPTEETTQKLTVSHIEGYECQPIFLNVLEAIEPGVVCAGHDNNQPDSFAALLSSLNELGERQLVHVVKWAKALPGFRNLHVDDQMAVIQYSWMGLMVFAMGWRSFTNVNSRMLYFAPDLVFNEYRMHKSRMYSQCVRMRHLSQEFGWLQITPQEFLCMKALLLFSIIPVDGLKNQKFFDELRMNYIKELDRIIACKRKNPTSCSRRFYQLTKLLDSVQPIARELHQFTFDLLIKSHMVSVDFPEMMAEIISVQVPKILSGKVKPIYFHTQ

T2 sequence (P03372 whole entry): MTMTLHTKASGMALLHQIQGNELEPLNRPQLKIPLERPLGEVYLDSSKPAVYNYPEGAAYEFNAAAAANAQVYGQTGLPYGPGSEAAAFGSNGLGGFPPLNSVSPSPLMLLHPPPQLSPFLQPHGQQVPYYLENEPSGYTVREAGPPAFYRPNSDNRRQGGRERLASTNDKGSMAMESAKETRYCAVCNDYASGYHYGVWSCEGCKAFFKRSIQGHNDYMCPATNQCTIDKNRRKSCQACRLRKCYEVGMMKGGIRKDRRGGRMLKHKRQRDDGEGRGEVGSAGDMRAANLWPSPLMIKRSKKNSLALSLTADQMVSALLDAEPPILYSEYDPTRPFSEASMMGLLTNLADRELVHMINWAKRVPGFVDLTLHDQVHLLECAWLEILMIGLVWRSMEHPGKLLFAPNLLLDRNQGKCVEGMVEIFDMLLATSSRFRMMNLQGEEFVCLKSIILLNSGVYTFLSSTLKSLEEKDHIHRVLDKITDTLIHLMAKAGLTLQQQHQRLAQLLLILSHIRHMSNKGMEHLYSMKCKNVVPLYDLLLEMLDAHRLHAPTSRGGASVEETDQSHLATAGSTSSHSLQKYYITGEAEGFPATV

Compound | EC50 (PR) [µM] | EC50 (ER [1]) [µM] | IC50 (GR) [µM] | IC50 (ER [2]) [µM] | IC50 (hAR) [µM] | AR Antagonist CV-1 Cells Efficacy (%) (hAR)
O=c1cc(C(F)(F)F)c2cc3c(cc2[nH]1)OCCN3CC(F)(F)F [Compound 105, 1,2,3,6-Tetrahydro-1-(2,2,2-trifluoroethyl)-9-(trifluoromethyl)-7H-[1,4]oxazino[3,2-g]quinolin-7-one] | > 10 | > 10 | 6.7 | > 10 |  | 
CCN1CCOc2cc3c(cc21)c(C(F)(F)F)cc(=O)n3C [Compound 104, 1-Ethyl-1,2,3,6-tetrahydro-6-methyl-9-(trifluoromethyl)-7H-[1,4]oxazino[3,2-g]quinolin-7-one] | > 10 | > 10 | 0.83 | > 10 | 0.026 | 68
CN1CCOc2cc3c(cc21)c(C(F)(F)F)cc(=O)n3C [Compound 102, 1,2,3,6-Tetrahydro-1,6-dimethyl-9-(trifluoromethyl)-7H-[1,4]oxazino[3,2-g]quinolin-7-one] | > 10 | > 10 | 3.2 | 5.9 | 0.022 | 58
O=C1COc2cc3[nH]c(=O)cc(C(F)(F)F)c3cc2N1CC(F)(F)F [Compound 137, 1,6-Dihydro-1-(2,2,2-trifluoroethyl)-9-(trifluoromethyl)-3H-[1,4]oxazino[3,2-g]-quinolin-2,7-dione] | > 10 | > 10 | > 10 | > 10 | 0.018 | 84
